Assay results from PubChem BioAssay (NCI).
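1) Cells in 96-well plates. 2) Compound, 48 h, 5 concentrations. 3) Linear interpolation between surrounding doses. 4) Unreached endpoint = highest concentration. GI50 = concentration required for 50% inhibition of growth. TGI: concentration producing complete growth inhibition.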

How the values were obtained:
Assay in all cases: inhibition of tumour cell growth, NCI panel, 48 h
A549 NSCLC = tested on: A549 NSCLC
DU-145 prostate = tested on: DU-145 prostate
RPMI-8226 leukemia = tested on: RPMI-8226 leukemia
SF-295 CNS = tested on: SF-295 CNS
NCI-H522 lung = tested on: NCI-H522 lung
T-47D breast = tested on: T-47D breast
MALME-3M melanoma = tested on: MALME-3M melanoma
786-0 renal = tested on: 786-0 renal
NCI-H226 lung = tested on: NCI-H226 lung
UO-31 renal = tested on: UO-31 renal
OVCAR-5 ovarian = tested on: OVCAR-5 ovarian
HS 578T breast = tested on: HS 578T breast
SF-268 CNS = tested on: SF-268 CNS
COLO 205 colon = tested on: COLO 205 colon
K-562 leukemia = tested on: K-562 leukemia
U251 CNS = tested on: U251 CNS
SN12C renal = tested on: SN12C renal
MOLT-4 leukemia = tested on: MOLT-4 leukemia
MDA-MB-231 breast = tested on: MDA-MB-231 breast
A498 renal = tested on: A498 renal
HOP-92 NSCLC = tested on: HOP-92 NSCLC
HL-60(TB) leukemia = tested on: HL-60(TB) leukemia
SF-539 CNS = tested on: SF-539 CNS
EKVX NSCLC = tested on: EKVX NSCLC
M14 melanoma = tested on: M14 melanoma
SK-MEL-2 melanoma = tested on: SK-MEL-2 melanoma
TK-10 renal = tested on: TK-10 renal
CAKI-1 renal = tested on: CAKI-1 renal
OVCAR-3 ovarian = tested on: OVCAR-3 ovarian
NCI-H460 lung = tested on: NCI-H460 lung
UACC-62 melanoma = tested on: UACC-62 melanoma
ACHN renal = tested on: ACHN renal
KM12 colon = tested on: KM12 colon
SK-MEL-5 melanoma = tested on: SK-MEL-5 melanoma
SK-MEL-28 melanoma = tested on: SK-MEL-28 melanoma
HCC-2998 colon = tested on: HCC-2998 colon
BT-549 breast = tested on: BT-549 breast
SNB-75 CNS = tested on: SNB-75 CNS
OVCAR-8 ovarian = tested on: OVCAR-8 ovarian
RXF 393 renal = tested on: RXF 393 renal
SNB-19 CNS = tested on: SNB-19 CNS
UACC-257 melanoma = tested on: UACC-257 melanoma
HT29 colon = tested on: HT29 colon
MCF7 breast = tested on: MCF7 breast
MDA-MB-435 = tested on: MDA-MB-435
PC-3 prostate = tested on: PC-3 prostate
HCT-15 colon = tested on: HCT-15 colon
HOP-62 NSCLC = tested on: HOP-62 NSCLC
OVCAR-4 ovarian = tested on: OVCAR-4 ovarian
IGROV1 ovarian = tested on: IGROV1 ovarian
SK-OV-3 ovarian = tested on: SK-OV-3 ovarian
HCT-116 colon = tested on: HCT-116 colon
NCI/ADR-RES ovarian = tested on: NCI/ADR-RES ovarian

C=C1C(=O)O[C@H]2[C@H]1CC/C(COC(=O)/C=C/C(=O)NCc1ccc(Cn3c(=O)sn(-c4ccccc4)c3=O)cc1)=C\CC[C@@]1(C)O[C@@H]21
GI50 (A549 NSCLC): 17.2 µM | TGI (A549 NSCLC): 37 µM | GI50 (DU-145 prostate): 1.95 µM | TGI (DU-145 prostate): 4.07 µM | GI50 (RPMI-8226 leukemia): 1.21 µM | TGI (RPMI-8226 leukemia): 4.78 µM | GI50 (SF-295 CNS): 18.3 µM | TGI (SF-295 CNS): 32.7 µM | GI50 (NCI-H522 lung): 0.406 µM | TGI (NCI-H522 lung): 1.77 µM | GI50 (T-47D breast): 2.22 µM | TGI (T-47D breast): 7.21 µM | GI50 (MALME-3M melanoma): 0.933 µM | TGI (MALME-3M melanoma): 2.41 µM | GI50 (786-0 renal): 1.61 µM | TGI (786-0 renal): 3.33 µM | GI50 (NCI-H226 lung): 14.6 µM | TGI (NCI-H226 lung): 32.8 µM | GI50 (UO-31 renal): 2.19 µM | TGI (UO-31 renal): 5.09 µM | GI50 (OVCAR-5 ovarian): 2.69 µM | TGI (OVCAR-5 ovarian): 5.8 µM | GI50 (HS 578T breast): 3.95 µM | TGI (HS 578T breast): 35.4 µM | GI50 (SF-268 CNS): 2.67 µM | TGI (SF-268 CNS): 10.9 µM | GI50 (COLO 205 colon): 1.74 µM | TGI (COLO 205 colon): 3.47 µM | GI50 (K-562 leukemia): 0.501 µM | TGI (K-562 leukemia): 18.4 µM | GI50 (U251 CNS): 3.46 µM | TGI (U251 CNS): 12.1 µM | GI50 (SN12C renal): 2.16 µM | TGI (SN12C renal): 5.95 µM | GI50 (MOLT-4 leukemia): 1.14 µM | TGI (MOLT-4 leukemia): 5.2 µM | GI50 (MDA-MB-231 breast): 2.02 µM | TGI (MDA-MB-231 breast): 3.98 µM | GI50 (A498 renal): 3.45 µM | TGI (A498 renal): 9.55 µM | GI50 (HOP-92 NSCLC): 1.85 µM | TGI (HOP-92 NSCLC): 3.55 µM | GI50 (HL-60(TB) leukemia): 0.925 µM | TGI (HL-60(TB) leukemia): 5.3 µM | GI50 (SF-539 CNS): 1.84 µM | TGI (SF-539 CNS): 3.45 µM | GI50 (EKVX NSCLC): 4.82 µM | TGI (EKVX NSCLC): 17.6 µM | GI50 (M14 melanoma): 1.86 µM | TGI (M14 melanoma): 4.37 µM | GI50 (SK-MEL-2 melanoma): 2.22 µM | TGI (SK-MEL-2 melanoma): 5.57 µM | GI50 (TK-10 renal): 1.92 µM | TGI (TK-10 renal): 3.85 µM | GI50 (CAKI-1 renal): 11.7 µM | TGI (CAKI-1 renal): 24.4 µM | GI50 (OVCAR-3 ovarian): 0.519 µM | TGI (OVCAR-3 ovarian): 1.72 µM | GI50 (NCI-H460 lung): 5.28 µM | TGI (NCI-H460 lung): 22.2 µM | GI50 (UACC-62 melanoma): 1.61 µM | TGI (UACC-62 melanoma): 3.26 µM | GI50 (ACHN renal): 1.84 µM | TGI (ACHN renal): 3.78 µM | GI50 (KM12 colon): 2.96 µM | TGI (KM12 colon): 11.6 µM | GI50 (SK-MEL-5 melanoma): 2.36 µM | TGI (SK-MEL-5 melanoma): 6.27 µM | GI50 (SK-MEL-28 melanoma): 1.74 µM | TGI (SK-MEL-28 melanoma): 3.28 µM | GI50 (HCC-2998 colon): 2.11 µM | TGI (HCC-2998 colon): 4.46 µM | GI50 (BT-549 breast): 1.55 µM | TGI (BT-549 breast): 2.91 µM | GI50 (SNB-75 CNS): 3.41 µM | TGI (SNB-75 CNS): 15.2 µM | GI50 (OVCAR-8 ovarian): 2.32 µM | TGI (OVCAR-8 ovarian): 5.39 µM | GI50 (RXF 393 renal): 1.43 µM | TGI (RXF 393 renal): 2.83 µM | GI50 (SNB-19 CNS): 4.8 µM | TGI (SNB-19 CNS): 19.4 µM | GI50 (UACC-257 melanoma): 1.74 µM | TGI (UACC-257 melanoma): 4.07 µM | GI50 (HT29 colon): 1.86 µM | TGI (HT29 colon): 3.84 µM | GI50 (MCF7 breast): 1.75 µM | TGI (MCF7 breast): 7.72 µM | GI50 (MDA-MB-435): 1.73 µM | TGI (MDA-MB-435): 3.44 µM | GI50 (PC-3 prostate): 2.84 µM | TGI (PC-3 prostate): 9.54 µM | GI50 (HCT-15 colon): 3.22 µM | TGI (HCT-15 colon): 13.6 µM | GI50 (HOP-62 NSCLC): 13.2 µM | TGI (HOP-62 NSCLC): 27.1 µM | GI50 (OVCAR-4 ovarian): 2.69 µM | TGI (OVCAR-4 ovarian): 8.09 µM | GI50 (IGROV1 ovarian): 2.44 µM | TGI (IGROV1 ovarian): 7.24 µM | GI50 (SK-OV-3 ovarian): 30.3 µM | TGI (SK-OV-3 ovarian): > 100 µM | GI50 (HCT-116 colon): 0.382 µM | TGI (HCT-116 colon): 1.44 µM | GI50 (NCI/ADR-RES ovarian): 47.8 µM | TGI (NCI/ADR-RES ovarian): > 100 µM
